Literature values in US20070202050A1, “Pharmaceutical Formulations” (priority 2006, published 2007).
One block for each compound: values may come before it.

Legend:
[1] = topically active steroid
[2] = tested on: symptoms associated with chronic nasal congestion
[3] = tested on: secretions of natural tear components; settings: preclinical testing

- bioavailability [1]: not readily bioavailable
Structure (SMILES): C[C@@H]1C[C@H]2[C@@H]3CCC4=CC(=O)C=C[C@]4(C)[C@@]3(Cl)[C@@H](O)C[C@]2(C)[C@@]1(OC(=O)c1ccco1)C(=O)CCl [Mometasone Furoate]

Structure (SMILES): Cc1cc(CCCOc2c(C)cc(-c3noc(C(F)(F)F)n3)cc2C)on1 [Pleconaril, 1,2,4-oxadiazole3-[3,5-Dimethyl-4-[3-(3-methyl-5-isoxazolyl)propoxy]phenyl]-5-(trifluoremethyl)]
- solubility in water / aqueous solvents: insoluble
- solubility in liquids (for example corn oil and ethanol): soluble only in liquids of low polarity
- activity against rhinoviruses (rhinoviruses): active against rhinoviruses

Structure (SMILES): Oc1cccc(Nc2ncc(F)c(Nc3cccc(O)c3)n2)c1 [R112]
- absolute difference over placebo [2]: 9%
- improvement from baseline measurements (prior to drug initiation) [2]: up to 38%
- relative improvement over placebo [2]: greater than 20%

Structure (SMILES): O=c1ccn([C@@H]2O[C@H](COP(=O)(O)OP(=O)(O)OP(=O)(O)OP(=O)(O)OC[C@H]3O[C@@H](n4ccc(=O)[nH]c4=O)[C@H](O)[C@@H]3O)[C@@H](O)[C@H]2O)c(=O)[nH]1 [diquafosol]
- effect on secretions of natural tear components [3]: increased the secretions of natural tear components
